Test results reported in ChEMBL document CHEMBL4342440, “Potential cytotoxic and anti-metastatic effects of berberine on gynaecological cancers with drug-associated resistance” (Eur J Med Chem, 2020).

Columns and labels:
HeLa [1] = assay: Cytotoxicity against human HeLa cells measured after 48 hrs by SRB assay; type: functional, cell-based
Ca-Ski [2] = assay: Cytotoxicity against human CaSki cells measured after 48 hrs by SRB assay; type: functional, cell-based
HeLa [3] = assay: Cytotoxicity against human HeLa cells measured after 48 hrs by MTT assay; type: functional, cell-based
Ca-Ski [4] = assay: Cytotoxicity against human CaSki cells measured after 48 hrs by MTT assay; type: functional, cell-based
[5] = Drug excretion in rat bile; type: ADME, tissue-based; conditions: read-out: Drug excretion
Vero = assay: Cytotoxicity against African green monkey Vero cells measured after 48 hrs by MTT assay; type: cell-based; conditions: Chlorocebus sabaeus
HeLa 229 = assay: Cytotoxicity against human HeLa 229 cells measured after 48 hrs by MTT assay; type: functional, cell-based; conditions: HeLa 229, 48 h
HeLa [6] = assay: Induction of apoptosis in human HeLa cells measured at 20 mg/L after 48 hrs relative to control; type: functional
HeLa [7] = assay: Induction of apoptosis in human HeLa cells measured at 40 mg/L after 48 hrs relative to control; type: functional
[8] = Drug excretion in rat urine; type: ADME, tissue-based; conditions: read-out: Drug excretion
[9] = Drug excretion in rat feces; type: ADME, tissue-based; conditions: faeces, read-out: Drug excretion

| Compound | IC50 (HeLa [1]) [µg/mL] | IC50 (Ca-Ski [2]) [µg/mL] | IC50 (HeLa [3]) [µg/mL] | further results |
| --- | --- | --- | --- | --- |
| COc1cc(CN2CCN(c3ccc(Cl)c(Cl)c3)CC2)c2cc3[n+](cc2c1O)CCc1cc2c(cc1-3)OCO2.[Cl-] | 4.35 to 6.32 | 3.41 to 6.08 | – | – |
| COc1cc(CN2CCN(c3cccc(C)c3C)CC2)c2cc3[n+](cc2c1O)CCc1cc2c(cc1-3)OCO2.[Cl-] | 4.35 to 6.32 | 3.41 to 6.08 | – | – |
| COc1ccc2cc3[n+](cc2c1OCCCCCNc1nc2ccc(Cl)cc2s1)CCc1cc2c(cc1-3)OCO2.[Cl-] | 5.47 | 5.31 | – | – |
| COc1cc(CN2CCN(c3ccc(C)cc3)CC2)c2cc3[n+](cc2c1O)CCc1cc2c(cc1-3)OCO2.[Cl-] | – | – | < 6 | IC50 (Ca-Ski [4]): < 6 µg/mL |
| COc1cc(CN2CCN(c3ccccc3[N+](=O)[O-])CC2)c2cc3[n+](cc2c1O)CCc1cc2c(cc1-3)OCO2.[Cl-] | – | – | < 6 | IC50 (Ca-Ski [4]): < 6 µg/mL |
| COc1cc(CN2CCN(c3ccc(C)cc3C)CC2)c2cc3[n+](cc2c1O)CCc1cc2c(cc1-3)OCO2.[Cl-] | 4.35 to 6.32 | 3.41 to 6.08 | – | – |
| COc1ccc2cc3[n+](cc2c1OCCCCCNc1nc2ccc(F)cc2s1)CCc1cc2c(cc1-3)OCO2.[Cl-] | 5.47 | 5.31 | – | – |
| COc1cc(CN2CCN(c3ccccc3Cl)CC2)c2cc3[n+](cc2c1O)CCc1cc2c(cc1-3)OCO2.[Cl-] | – | – | < 6 | IC50 (Ca-Ski [4]): < 6 µg/mL |
| COc1cc(CN2CCN(c3ccc(F)cc3F)CC2)c2cc3[n+](cc2c1O)CCc1cc2c(cc1-3)OCO2.[Cl-] | 4.35 to 6.32 | 3.41 to 6.08 | – | – |
| COc1c(O)ccc2cc3[n+](cc12)CCc1cc2c(cc1-3)OCO2.[Cl-] [THALIFENDINE] | – | – | – | dose excreted [5]: 83% |
| COc1ccc2cc3[n+](cc2c1OCCCCCNc1nc2ccc(C(=O)O)cc2s1)CCc1cc2c(cc1-3)OCO2.[Cl-] | 5.47 | 5.31 | – | – |
| COc1ccc2cc3[n+](cc2c1OCCCCCNc1nc2ccc(C#N)cc2s1)CCc1cc2c(cc1-3)OCO2.[Cl-] | 5.47 | 5.31 | – | – |
| COc1ccc2cc3[n+](cc2c1OCCCCCNc1nc2ccc(C(F)(F)F)cc2s1)CCc1cc2c(cc1-3)OCO2.[Cl-] | 5.47 | 5.31 | – | – |
| CCOc1ccc2nc(NCCCCCOc3c(OC)ccc4cc5[n+](cc34)CCc3cc4c(cc3-5)OCO4)sc2c1.[Cl-] | 5.47 | 5.31 | – | – |
| COc1cc(CN2CCN(c3ccc(Cl)cc3)CC2)c2cc3[n+](cc2c1O)CCc1cc2c(cc1-3)OCO2.[Cl-] | – | – | < 6 | IC50 (Ca-Ski [4]): < 6 µg/mL |
| COc1ccc2nc(NCCCCCOc3c(OC)ccc4cc5[n+](cc34)CCc3cc4c(cc3-5)OCO4)sc2c1.[Cl-] | 5.47 | 5.31 | – | – |
| COc1cc(CN2CCN(c3cc(Cl)cc(Cl)c3)CC2)c2cc3[n+](cc2c1O)CCc1cc2c(cc1-3)OCO2.[Cl-] | 4.35 to 6.32 | 3.41 to 6.08 | – | – |
| COc1cc(CN2CCN(c3ccc(OC(F)(F)F)cc3)CC2)c2cc3[n+](cc2c1O)CCc1cc2c(cc1-3)OCO2.[Cl-] | – | – | < 6 | IC50 (Ca-Ski [4]): < 6 µg/mL |

| Compound | IC50 (HeLa [1]) [µg/mL] | IC50 (Ca-Ski [2]) [µg/mL] | IC50 (HeLa [3]) [µg/mL] | further results |
| --- | --- | --- | --- | --- |
| COc1ccc2cc3[n+](cc2c1OCCCCCNc1nc2c(F)cc(F)cc2s1)CCc1cc2c(cc1-3)OCO2.[Cl-] | 5.47 | 5.31 | – | – |
| COc1ccc2cc3[n+](cc2c1OCCCCCNc1nc2ccccc2s1)CCc1cc2c(cc1-3)OCO2.[Cl-] | 5.47 | 5.31 | – | – |
| COc1cc(CN2CCN(c3cccc(Cl)c3)CC2)c2cc3[n+](cc2c1O)CCc1cc2c(cc1-3)OCO2.[Cl-] | – | – | < 6 | IC50 (Ca-Ski [4]): < 6 µg/mL |
| COc1cc(CN2CCN(c3cccc(Cl)c3Cl)CC2)c2cc3[n+](cc2c1O)CCc1cc2c(cc1-3)OCO2.[Cl-] | 4.35 to 6.32 | 3.41 to 6.08 | – | – |
| COc1ccc2cc3[n+](cc2c1OC)CCc1cc2c(cc1-3)OCO2 [BERBERINE] | – | – | 12.1 | IC50 (Vero): 71.1 µg/mL; IC50 (HeLa 229): 42.9 µM; Activity (HeLa [6]): 16.7%; Activity (HeLa [7]): 29.6%; dose excreted [8]: 0.0939%; dose excreted [9]: 22.7%; dose excreted [5]: 22.8% |
| COc1cc(CN2CCN(c3ccc(Cl)cc3Cl)CC2)c2cc3[n+](cc2c1O)CCc1cc2c(cc1-3)OCO2.[Cl-] | 4.35 to 6.32 | 3.41 to 6.08 | – | – |
| COc1cc(CN2CCN(c3ccc([N+](=O)[O-])cc3)CC2)c2cc3[n+](cc2c1O)CCc1cc2c(cc1-3)OCO2.[Cl-] | – | – | < 6 | IC50 (Ca-Ski [4]): < 6 µg/mL |
| COc1ccc2cc3[n+](cc2c1OCCCCCNc1nc2ccc(C)cc2s1)CCc1cc2c(cc1-3)OCO2.[Cl-] | 5.47 | 5.31 | – | – |
| COc1cc(CN2CCN(c3ccccc3F)CC2)c2cc3[n+](cc2c1O)CCc1cc2c(cc1-3)OCO2.[Cl-] | – | – | < 6 | IC50 (Ca-Ski [4]): < 6 µg/mL |
| COc1ccc2cc3[n+](cc2c1OCCCCCNNc1nc2ccccc2s1)CCc1cc2c(cc1-3)OCO2.[Cl-] | 5.47 | 5.31 | – | – |
| COc1ccc2cc3[n+](cc2c1OCCCCCNc1nc2ccc(I)cc2s1)CCc1cc2c(cc1-3)OCO2.[Cl-] | 5.47 | 5.31 | – | – |
| COc1ccc2cc3[n+](cc2c1OCCCCCNc1nc2ccc([N+](=O)[O-])cc2s1)CCc1cc2c(cc1-3)OCO2.[Cl-] | 5.47 | 5.31 | – | – |
| COc1ccc(N2CCN(Cc3cc(OC)c(O)c4c[n+]5c(cc34)-c3cc4c(cc3CC5)OCO4)CC2)c(OC)c1.[Cl-] | 4.35 to 6.32 | 3.41 to 6.08 | – | – |
| COc1cc(CN2CCN(c3cccc(F)c3F)CC2)c2cc3[n+](cc2c1O)CCc1cc2c(cc1-3)OCO2.[Cl-] | 4.35 to 6.32 | 3.41 to 6.08 | – | – |
| COc1cc(CN2CCN(c3ccc(C(F)(F)F)cc3)CC2)c2cc3[n+](cc2c1O)CCc1cc2c(cc1-3)OCO2.[Cl-] | – | – | < 6 | IC50 (Ca-Ski [4]): < 6 µg/mL |
| COc1ccc2cc3[n+](cc2c1OCCCCCNc1nc2ccc(Br)cc2s1)CCc1cc2c(cc1-3)OCO2.[Cl-] | 5.47 | 5.31 | – | – |
| COc1cc(CN2CCN(c3ccc(F)cc3)CC2)c2cc3[n+](cc2c1O)CCc1cc2c(cc1-3)OCO2.[Cl-] | – | – | < 6 | IC50 (Ca-Ski [4]): < 6 µg/mL |
